In patent US20190255073A1, “ESTERS OF 3-POLYAMINE DERIVATIVES OF BILE ACIDS FOR THE TREATMENT OF INFECTIONS” (VIRBAC, priority 2016, published 2019):
In brackets after ≈: the same amount, converted by molar mass. Read-outs that look alike come from different tables or passages of the source.

Legend:
P. aeruginosa (1051575) [1] = experiment: Potentiation of chloramphenicol activity; format: cell-based, Pseudomonas aeruginosa; details: concentration of compound required with chloramphenicol 2 μg/mL
Experimental: This method requires the use of a 96-well plate: 100 μL of a liquid culture medium are placed in each well and then seeded with the microbial suspension prepared previously. The required volume to be seeded is calculated for an OD of 0.01, which corresponds to about 5×10^6 bacteria in each well. In this plate, the first line corresponds to a negative control (200 μL of sterile culture medium in each well), the second line corresponds to a positive control (100 μL of sterile culture medium+100 μL of the bacterial suspension), and the third line contains 192 μL of culture medium; 8 μL of compound of formula (I) to be tested are placed in each well. […] 92 μL of bacterial suspension are then added to lines 3 to 8. […] After 24 hours of incubation at 37° C., 40 μL of nitro tetrazolium iodide are added to each well to reveal the presence of live bacteria by staining the medium pink.
The procedure is identical to that indicated in Example 5 above. […]
(§1) The results are given in table V. They indicate the concentration of compound of formula (I) required to be able to restore the activity of the antibiotic under consideration.

S. intermedius (1051997) = experiment: MIC determination by microplate dilution, S. intermedius animal strain; format: cell-based, Staphylococcus intermedius; details: Staphylococcus intermedius, Gram-positive, Mueller-Hinton medium, 24 h, 37° C.
Outline: (§2)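 Two-fold serial broth microdilution in Mueller-Hinton medium, inoculum adjusted to OD 0.01 per well from a 24 h, 37 °C preculture. Compounds were dissolved in DMSO/methanol (50/50) at 5 mg/mL stock. Plates were incubated 24 h at 37 °C under humid atmosphere, then read at 620 nm to derive the MIC; duplicates.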

P. aeruginosa (1051575) [2] = experiment: Potentiation of erythromycin activity; format: cell-based, Pseudomonas aeruginosa; details: concentration of compound required with erythromycin 2 μg/mL
Experimental: This method requires the use of a 96-well plate: 100 μL of a liquid culture medium are placed in each well and then seeded with the microbial suspension prepared previously. The required volume to be seeded is calculated for an OD of 0.01, which corresponds to about 5×10^6 bacteria in each well. In this plate, the first line corresponds to a negative control (200 μL of sterile culture medium in each well), the second line corresponds to a positive control (100 μL of sterile culture medium+100 μL of the bacterial suspension), and the third line contains 192 μL of culture medium; 8 μL of compound of formula (I) to be tested are placed in each well. Thereafter, a cascade dilution is performed from this line. […] (1 mg dissolved in 20 mL) are then added to each well of the lines 3 to 8 to obtain a final antibiotic concentration of 2 μg/mL. 92 μL of bacterial suspension are then added to lines 3 to 8. […] After 24 hours of incubation at 37° C., 40 μL of nitro tetrazolium iodide are added to each well to reveal the presence of live bacteria by staining the medium pink.
The procedure is identical to that indicated in Example 5 above. 8 μL of an antibiotic solution under consideration (1 mg dissolved in 20 mL) are added to obtain a final antibiotic concentration of 2 μg/mL instead of 8 μL of a doxycycline solution.
as §1

E. coli (1956) = experiment: MIC determination by microplate dilution, E. coli animal strain; format: cell-based, Escherichia coli; details: Escherichia coli, Gram-negative, Mueller-Hinton medium, 24 h, 37° C.
Outline: as §2

S. aureus (340) = experiment: MIC determination by microplate dilution, S. aureus animal strain; format: cell-based, Staphylococcus aureus; details: Staphylococcus aureus, Gram-positive, Mueller-Hinton medium, 24 h, 37° C.
Outline: as §2

C. albicans = experiment: Antifungal activity, cascade microdilution, C. albicans; format: cell-based, Candida albicans; details: Candida albicans, 24 h, read-out: IC50 (μg/mL) C. albicans
E. faecalis ATCC29212 = experiment: MIC determination by microplate dilution, E. faecalis human strain; format: cell-based, Enterococcus faecalis; details: Enterococcus faecalis, ATCC29212, Gram-positive, Mueller-Hinton medium, 24 h, 37° C.
Outline: as §2

S. aureus ATCC25923 = experiment: MIC determination by microplate dilution, S. aureus human strain; format: cell-based, Staphylococcus aureus; details: Staphylococcus aureus, ATCC25923, Gram-positive, Mueller-Hinton medium, 24 h, 37° C.
Outline: as §2

E. coli ATCC28922 = experiment: MIC determination by microplate dilution, E. coli human strain; format: cell-based, Escherichia coli; details: Escherichia coli, ATCC28922, Gram-negative, Mueller-Hinton medium, 24 h, 37° C.
Outline: as §2

P. aeruginosa ATCC27853 = experiment: MIC determination by microplate dilution, P. aeruginosa human strain; format: cell-based, Pseudomonas aeruginosa; details: Pseudomonas aeruginosa, ATCC27853, Gram-negative, Mueller-Hinton medium, 24 h, 37° C.
Outline: as §2

P. aeruginosa (1051575) [3] = experiment: MIC determination by microplate dilution, P. aeruginosa animal strain; format: cell-based, Pseudomonas aeruginosa; details: Pseudomonas aeruginosa, Gram-negative, Mueller-Hinton medium, 24 h, 37° C.
Outline: as §2

P. aeruginosa (1051575) [4] = experiment: Potentiation of the doxycycline activity at 2 μg/mL; format: cell-based, Pseudomonas aeruginosa; details: in combination with doxycycline 2 μg/mL; 24 h, 37°
CHO-K1 cells = experiment: WST1 cytotoxicity test on CHO-K1 cells; format: cell-based, Chinese hamster; details: Cricetulus griseus
Outline: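 CHO-K1 cells seeded 24 h, then exposed to increasing compound concentrations in duplicate for 24 h at 37 °C, 5% CO2. Viability by WST-1 reduction (20 min, 37 °C), absorbance at 450 nm. IC50 = concentration reducing viability by 50%, from nonlinear regression of dose-response.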

[5] = CHO-K1, 24 h, read-out: IC50 (μg/mL) CHO

Structure (SMILES)	MIC P. aeruginosa (1051575), compound + chloramphenicol (P. aeruginosa (1051575) [1])	MIC (S. intermedius (1051997))	MIC P. aeruginosa (1051575), compound + erythromycin (P. aeruginosa (1051575) [2])	MIC (E. coli (1956))	MIC (S. aureus (340))	IC50 (C. albicans)	MIC (E. faecalis ATCC29212)	MIC (S. aureus ATCC25923)	MIC (E. coli ATCC28922)	MIC (P. aeruginosa ATCC27853)	MIC (P. aeruginosa (1051575) [3])	MIC - P. aeruginosa (1051575): content of compound of formula (I) to restore the doxycycline activity (at 2 μg/mL) (P. aeruginosa (1051575) [4])	IC50 (CHO-K1 cells; [5])	IC50 (CHO-K1 cells; CHO-K1, read-out: IC50 (μg/mL) CHO)	IC50 (C. albicans; compounds as hydrochloride in water, MH medium)	IC50 (CHO-K1 cells; CHO-K1, CHO (Example 7), read-out: IC50 (μg/mL) CHO)
CC(C)OC(=O)CC[C@@H](C)[C@H]1CCC2C3CCC4C[C@@H](NCCN(CCN)CCN)CC[C@]4(C)C3CC[C@@]21C (stereo partly drawn) [(48), isopropyl 3β-(tris(2-aminoethyl)amine)lithocholate]	7 µg/mL	7 µg/mL (≈ 12.8 µM)	55 µg/mL	–	–	–	–	–	–	–	–	–	–	–	–	–
COC(=O)CC[C@@H](C)[C@H]1CCC2C3CCC4C[C@@H](NCCNCCNCCNCCN)CC[C@]4(C)C3C[C@H](O)[C@@]21C (stereo partly drawn) [(19), methyl 3β-(tetraethylenepentamine)deoxycholate]	–	7 µg/mL (≈ 12.1 µM)	–	29 µg/mL (≈ 50.2 µM)	7 µg/mL (≈ 12.1 µM)	4 µg/mL (≈ 6.92 µM)	7 µg/mL (≈ 12.1 µM)	4 µg/mL (≈ 6.92 µM)	7 µg/mL (≈ 12.1 µM)	15 µg/mL (≈ 26 µM)	7 µg/mL (≈ 12.1 µM)	4 µg/mL	40 µg/mL (≈ 69.2 µM)	40 µg/mL (≈ 69.2 µM)	–	–
CC(C)OC(=O)CC[C@@H](C)[C@H]1CCC2C3C(CC[C@@]21C)[C@@]1(C)CC[C@H](NCCN(CCN)CCN)CC1C[C@@H]3O (stereo partly drawn) [(43), isopropyl 3β-(tris(2-aminoethyl)amine)ursodeoxycholate]	–	7 µg/mL (≈ 12.4 µM)	28 µg/mL	56 µg/mL (≈ 99.5 µM)	–	–	–	–	–	–	14 µg/mL (≈ 24.9 µM)	–	–	–	–	–
COC(=O)CC[C@@H](C)[C@H]1CCC2C3CCC4C[C@@H](NCCCNCCCNCCCN)CC[C@]4(C)C3C[C@H](O)[C@@]21C (stereo partly drawn) [Compound (3), methyl 3β-norsperminodeoxycholate]	–	1 µg/mL (≈ 1.73 µM)	–	14 µg/mL (≈ 24.3 µM)	4 µg/mL (≈ 6.93 µM)	–	2 µg/mL (≈ 3.47 µM)	2 µg/mL (≈ 3.47 µM)	29 µg/mL (≈ 50.3 µM)	2 µg/mL (≈ 3.47 µM)	2 µg/mL (≈ 3.47 µM)	4 µg/mL	6 µg/mL (≈ 10.4 µM)	–	–	–
CC(C)OC(=O)CC[C@@H](C)[C@H]1CCC2C3CCC4C[C@@H](NCCCN(CCCN)CCCN)CC[C@]4(C)C3C[C@H](O)[C@@]21C (stereo partly drawn) [(28), isopropyl 3β-(tris(3-aminopropyl)amine)deoxycholate]	–	8 µg/mL (≈ 13.2 µM)	–	30 µg/mL (≈ 49.6 µM)	15 µg/mL (≈ 24.8 µM)	–	30 µg/mL (≈ 49.6 µM)	15 µg/mL (≈ 24.8 µM)	15 µg/mL (≈ 24.8 µM)	30 µg/mL (≈ 49.6 µM)	30 µg/mL (≈ 49.6 µM)	2 µg/mL	85 µg/mL (≈ 141 µM)	–	–	–
CC(C)OC(=O)CC[C@@H](C)[C@H]1CCC2C3C(CC[C@@]21C)[C@@]1(C)CC[C@H](NCCCNCCCN)CC1C[C@@H]3O (stereo partly drawn) [Compound (14), isopropyl 3β-norspermidinoursodeoxycholate]	–	12.5 µg/mL (≈ 22.8 µM)	–	110 µg/mL (≈ 201 µM)	55 µg/mL (≈ 100 µM)	–	–	–	–	–	110 µg/mL (≈ 201 µM)	–	–	–	28 µg/mL (≈ 51.1 µM)	200 µg/mL (≈ 365 µM)
